Results from patent US8536354B2, “Steroidal ligands and their use in gene switch modulation” (Intrexon Corporation, priority 2008, dated 2013).
Where two headings read alike, the source gives them in different places.

How the values were obtained:
[1] = target: BmEcR (GAL4-EcR DEF with VP16-RXR-USP chimera) (Bombyx mori, UniProt P49881); test: Two-hybrid gene switch assay, luciferase reporter, BmEcR, mouse NIH3T3 cells; format: cell-based
[2] = target: T1, wild-type CfEcR (GAL4-CfEcR-DEF with VP16-RXR-USP chimera) (Choristoneura fumiferana, UniProt O77255); test: Two-hybrid gene switch assay, luciferase reporter, wild-type CfEcR, mouse NIH3T3 cells
T1 sequence (O77255 219-541): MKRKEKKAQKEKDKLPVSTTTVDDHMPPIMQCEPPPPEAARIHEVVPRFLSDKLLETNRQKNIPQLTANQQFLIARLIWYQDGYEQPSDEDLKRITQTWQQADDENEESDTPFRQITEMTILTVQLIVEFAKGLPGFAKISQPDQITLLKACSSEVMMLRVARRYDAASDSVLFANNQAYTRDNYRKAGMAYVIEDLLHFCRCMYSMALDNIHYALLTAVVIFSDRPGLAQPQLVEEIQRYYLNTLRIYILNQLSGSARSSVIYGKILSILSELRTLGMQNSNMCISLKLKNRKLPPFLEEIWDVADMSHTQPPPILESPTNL
T1 sequence (P28702 1-533 partner): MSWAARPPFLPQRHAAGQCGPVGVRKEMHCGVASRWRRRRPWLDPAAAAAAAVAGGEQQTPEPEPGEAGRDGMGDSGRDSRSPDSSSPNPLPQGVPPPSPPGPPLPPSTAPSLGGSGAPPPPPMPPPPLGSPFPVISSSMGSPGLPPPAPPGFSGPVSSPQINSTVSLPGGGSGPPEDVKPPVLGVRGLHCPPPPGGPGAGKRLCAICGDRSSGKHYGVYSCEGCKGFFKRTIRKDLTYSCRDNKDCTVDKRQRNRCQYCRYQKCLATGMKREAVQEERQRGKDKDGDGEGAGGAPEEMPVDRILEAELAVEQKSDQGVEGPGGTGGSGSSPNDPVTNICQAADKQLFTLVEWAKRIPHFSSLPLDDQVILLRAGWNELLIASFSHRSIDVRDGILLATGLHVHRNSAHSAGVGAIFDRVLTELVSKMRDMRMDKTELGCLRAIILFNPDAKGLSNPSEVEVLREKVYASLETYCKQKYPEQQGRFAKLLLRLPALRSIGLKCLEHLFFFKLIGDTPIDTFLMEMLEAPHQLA

[3] = target: T2, MsEcR (GAL4-EcR DEF with VP16-RXR-USP chimera) (Manduca sexta, UniProt P49883); test: Two-hybrid gene switch assay, luciferase reporter, MsEcR, mouse NIH3T3 cells
T2 sequence (P49883 1-556): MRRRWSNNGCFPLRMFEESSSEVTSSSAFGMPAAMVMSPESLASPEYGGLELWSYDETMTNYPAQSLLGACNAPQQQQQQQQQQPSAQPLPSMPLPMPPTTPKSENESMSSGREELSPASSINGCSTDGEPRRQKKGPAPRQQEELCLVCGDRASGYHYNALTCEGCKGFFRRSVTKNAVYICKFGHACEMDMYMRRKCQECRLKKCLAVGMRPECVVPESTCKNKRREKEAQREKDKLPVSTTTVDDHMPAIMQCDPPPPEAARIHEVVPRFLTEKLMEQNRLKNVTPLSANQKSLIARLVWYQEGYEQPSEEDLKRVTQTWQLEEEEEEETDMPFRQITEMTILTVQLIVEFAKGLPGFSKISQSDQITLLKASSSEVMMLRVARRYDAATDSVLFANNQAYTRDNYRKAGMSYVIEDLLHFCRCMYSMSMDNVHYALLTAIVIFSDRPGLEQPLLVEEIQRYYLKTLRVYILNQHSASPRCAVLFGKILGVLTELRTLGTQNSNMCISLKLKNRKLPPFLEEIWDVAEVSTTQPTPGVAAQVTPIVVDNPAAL
T2 sequence (P28702 1-533 partner): T1 sequence (P28702 1-533 partner)

[4] = tested on: NcEcR (GAL4-EcR DEF with VP16-RXR partner); test: Two-hybrid gene switch assay, luciferase reporter, NcEcR, mouse NIH3T3 cells
[5] = target: wild-type Drosophila melanogaster EcR (DmEcR; GAL4-EcR DEF with VP16-RXR-USP chimera) (Drosophila melanogaster, UniProt P34021); test: Two-hybrid gene switch assay, luciferase reporter, wild-type DmEcR, mouse NIH3T3 cells; format: cell-based
Chain of wild-type Drosophila melanogaster EcR (DmEcR; GAL4-EcR DEF with VP16-RXR-USP chimera) (P34021 with tags, fused parts or gaps limits assumed): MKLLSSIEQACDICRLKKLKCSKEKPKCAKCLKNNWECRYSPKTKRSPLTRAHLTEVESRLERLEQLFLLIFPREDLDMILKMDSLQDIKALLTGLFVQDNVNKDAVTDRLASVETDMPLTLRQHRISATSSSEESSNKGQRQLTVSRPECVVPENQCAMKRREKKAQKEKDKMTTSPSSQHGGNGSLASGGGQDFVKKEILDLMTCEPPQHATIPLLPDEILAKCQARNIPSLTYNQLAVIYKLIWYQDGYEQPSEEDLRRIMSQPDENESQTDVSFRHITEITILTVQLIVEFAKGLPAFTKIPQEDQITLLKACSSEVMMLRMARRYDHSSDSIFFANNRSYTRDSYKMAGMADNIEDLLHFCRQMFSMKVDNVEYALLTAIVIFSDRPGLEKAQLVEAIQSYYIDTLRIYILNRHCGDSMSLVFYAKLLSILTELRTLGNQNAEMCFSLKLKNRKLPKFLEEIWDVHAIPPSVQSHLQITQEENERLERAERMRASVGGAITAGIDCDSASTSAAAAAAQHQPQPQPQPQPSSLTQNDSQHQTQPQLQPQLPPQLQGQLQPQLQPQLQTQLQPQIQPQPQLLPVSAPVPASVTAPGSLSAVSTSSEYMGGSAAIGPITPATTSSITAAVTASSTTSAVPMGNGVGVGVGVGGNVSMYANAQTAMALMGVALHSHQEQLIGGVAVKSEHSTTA

[6] = target: wild-type Aedes aegypti EcR (AaEcR; GAL4-EcR DEF with VP16-RXR-USP chimera) (Aedes aegypti, UniProt P49880); test: Two-hybrid gene switch assay, luciferase reporter, wild-type AaEcR, mouse NIH3T3 cells; format: cell-based
Chain of wild-type Aedes aegypti EcR (AaEcR; GAL4-EcR DEF with VP16-RXR-USP chimera) (P49880 with tags, fused parts or gaps limits assumed, change not shown): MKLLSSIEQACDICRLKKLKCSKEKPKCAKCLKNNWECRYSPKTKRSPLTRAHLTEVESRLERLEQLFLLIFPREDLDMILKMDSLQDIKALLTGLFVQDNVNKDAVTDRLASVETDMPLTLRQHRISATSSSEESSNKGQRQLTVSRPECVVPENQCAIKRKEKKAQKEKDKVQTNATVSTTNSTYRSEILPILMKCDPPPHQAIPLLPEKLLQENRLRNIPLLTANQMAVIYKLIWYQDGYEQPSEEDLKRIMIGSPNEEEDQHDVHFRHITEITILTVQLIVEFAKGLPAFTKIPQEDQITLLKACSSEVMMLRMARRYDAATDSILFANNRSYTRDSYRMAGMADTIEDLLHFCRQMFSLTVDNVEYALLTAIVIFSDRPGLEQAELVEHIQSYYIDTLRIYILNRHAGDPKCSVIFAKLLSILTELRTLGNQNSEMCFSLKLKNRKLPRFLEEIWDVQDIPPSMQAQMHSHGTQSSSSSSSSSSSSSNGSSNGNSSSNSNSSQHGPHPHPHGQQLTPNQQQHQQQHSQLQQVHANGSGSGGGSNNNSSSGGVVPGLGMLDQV

[7] = target: T3, AmaEcR (GAL4-EcR DEF with VP16-RXR-USP chimera) (Amblyomma americanum, UniProt O44338); test: Two-hybrid gene switch assay, luciferase reporter, AmaEcR, mouse NIH3T3 cells
T3 sequence (O44338 255-570): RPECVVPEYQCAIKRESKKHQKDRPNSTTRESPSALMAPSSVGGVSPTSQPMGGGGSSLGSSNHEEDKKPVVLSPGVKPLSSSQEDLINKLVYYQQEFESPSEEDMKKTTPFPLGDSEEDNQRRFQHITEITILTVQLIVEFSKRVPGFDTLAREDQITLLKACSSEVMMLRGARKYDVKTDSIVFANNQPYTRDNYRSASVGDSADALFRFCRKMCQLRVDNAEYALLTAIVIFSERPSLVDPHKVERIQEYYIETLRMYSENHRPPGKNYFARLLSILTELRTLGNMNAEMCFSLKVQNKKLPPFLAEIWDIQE
T3 sequence (P28702 1-533 partner): T1 sequence (P28702 1-533 partner)

[8] = target: T4, BaEcR (GAL4-EcR DEF with VP16-RXR-USP chimera) (Bemisia tabaci, UniProt A0A6M3RDR8); test: Two-hybrid gene switch assay, luciferase reporter, BaEcR, mouse NIH3T3 cells
T4 sequence (A0A6M3RDR8 115-530): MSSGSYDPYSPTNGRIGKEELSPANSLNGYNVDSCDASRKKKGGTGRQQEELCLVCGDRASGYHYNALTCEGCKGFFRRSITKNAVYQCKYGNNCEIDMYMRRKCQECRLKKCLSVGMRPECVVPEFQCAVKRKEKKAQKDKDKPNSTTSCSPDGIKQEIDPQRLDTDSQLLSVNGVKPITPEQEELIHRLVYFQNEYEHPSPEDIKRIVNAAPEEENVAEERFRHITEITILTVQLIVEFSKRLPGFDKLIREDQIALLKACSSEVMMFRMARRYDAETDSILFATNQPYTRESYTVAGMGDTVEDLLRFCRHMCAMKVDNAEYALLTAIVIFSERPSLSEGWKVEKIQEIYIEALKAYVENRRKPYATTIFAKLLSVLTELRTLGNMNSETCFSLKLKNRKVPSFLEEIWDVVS
T4 sequence (P28702 1-533 partner): T1 sequence (P28702 1-533 partner)

[9] = target: T5, TmEcR (GAL4-EcR DEF with VP16-RXR partner) (Tenebrio molitor, UniProt O02035); test: Two-hybrid gene switch assay, luciferase reporter, TmEcR, mouse NIH3T3 cells
T5 sequence (O02035 194-491): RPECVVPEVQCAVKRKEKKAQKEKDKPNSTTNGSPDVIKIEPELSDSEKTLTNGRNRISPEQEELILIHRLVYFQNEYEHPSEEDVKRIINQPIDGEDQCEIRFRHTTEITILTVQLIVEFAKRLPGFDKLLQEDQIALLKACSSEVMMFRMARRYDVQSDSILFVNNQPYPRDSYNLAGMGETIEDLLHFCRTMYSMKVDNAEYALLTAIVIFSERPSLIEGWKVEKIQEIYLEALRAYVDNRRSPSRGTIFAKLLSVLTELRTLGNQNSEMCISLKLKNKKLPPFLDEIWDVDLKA
T5 sequence (P28704 1-520 partner): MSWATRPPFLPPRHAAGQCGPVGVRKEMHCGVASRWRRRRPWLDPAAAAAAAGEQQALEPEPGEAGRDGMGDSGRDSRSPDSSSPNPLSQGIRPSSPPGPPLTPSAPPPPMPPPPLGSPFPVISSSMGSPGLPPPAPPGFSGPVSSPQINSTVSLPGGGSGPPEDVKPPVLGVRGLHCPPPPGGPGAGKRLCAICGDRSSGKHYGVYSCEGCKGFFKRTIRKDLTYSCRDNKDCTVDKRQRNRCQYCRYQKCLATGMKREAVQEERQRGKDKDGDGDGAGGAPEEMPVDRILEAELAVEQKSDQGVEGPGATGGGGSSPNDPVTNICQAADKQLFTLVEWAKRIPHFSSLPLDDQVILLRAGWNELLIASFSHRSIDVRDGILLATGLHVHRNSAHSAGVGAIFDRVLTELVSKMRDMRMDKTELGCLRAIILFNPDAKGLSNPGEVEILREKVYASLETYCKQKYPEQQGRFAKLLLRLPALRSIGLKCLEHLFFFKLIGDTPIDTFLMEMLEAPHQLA

[10] = EC50, FIG. 13A/13B, GAL4-EcR(DEF) with VP16-RXR-USP chimera
[11] = EC50, FIG. 14A/14B, GAL4-EcR(DEF) with VP16-RXR-USP chimera
[12] = EC50, FIG. 16, GAL4-EcR (DEF) / VP16-RXR-USP chimera
[13] = FIG. 14A/14B, GAL4-EcR(DEF) with VP16-RXR-USP chimera, read-out: EC50
[14] = FIG. 16, GAL4-EcR (DEF) / VP16-RXR-USP chimera, read-out: EC50
[15] = EC50, FIG. 15, GAL4-EcR (DEF) / VP16-RXR-USP chimera
[16] = EC50, FIG. 14A/14B, GAL4-EcR(DEF)

Chain of BmEcR (GAL4-EcR DEF with VP16-RXR-USP chimera) (P49881 other isoform, or with tags, fused parts or gaps, change not shown): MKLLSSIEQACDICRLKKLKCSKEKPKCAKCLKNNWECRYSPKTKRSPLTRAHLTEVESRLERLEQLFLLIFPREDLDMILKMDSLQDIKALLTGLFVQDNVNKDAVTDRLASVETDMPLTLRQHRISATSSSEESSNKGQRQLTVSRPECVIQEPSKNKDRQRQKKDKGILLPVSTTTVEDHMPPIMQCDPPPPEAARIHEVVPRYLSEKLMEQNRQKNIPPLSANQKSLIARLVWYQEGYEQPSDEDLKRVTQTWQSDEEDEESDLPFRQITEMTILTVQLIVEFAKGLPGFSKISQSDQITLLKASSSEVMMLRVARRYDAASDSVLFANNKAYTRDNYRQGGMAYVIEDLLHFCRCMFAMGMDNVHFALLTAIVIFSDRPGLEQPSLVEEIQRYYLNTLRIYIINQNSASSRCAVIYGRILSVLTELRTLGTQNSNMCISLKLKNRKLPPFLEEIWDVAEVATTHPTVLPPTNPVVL

## C=C(C)CC[C@@H](O)[C@](C)(O)[C@H]1CC[C@@]2(O)C3=CC(=O)[C@@H]4C[C@@H](O)[C@@H](O)C[C@]4(C)[C@H]3CC[C@]12C [listing 1 of 2 here]
[1]; read-out: EC50
  EC50: 6.28 µM
[2]
  EC50: ~12 µM
[3]; [10]
  EC50: 0.608 µM

## CC(C)(O)CC[C@H]1OC(C)(C)O[C@]1(C)[C@H]1CC[C@@]2(O)C3=CC(=O)[C@@H]4C[C@@H](O)[C@@H](O)C[C@]4(C)[C@H]3CC[C@]12C [20-hydroxyecdysone-20,22-acetonide]
[4]; FIG. 14A/14B, GAL4-EcR(DEF)
  EC50: ~10 µM
[5]; [11]
  EC50: > 33 µM
[5]; [12]
  EC50: ~12 µM
[6]; [13]
  EC50: ~12 µM
[6]; [14]
  EC50: 2.38 µM
[7]; [11]
  EC50: ~20 µM
[7]; [12]
  EC50: ~1 µM
[8]; [11]
  EC50: > 33 µM
[8]; [12]
  EC50: 8.57 µM
[3]; [10]
  EC50: ~12 µM
[3]; [15]
  EC50: ~12 µM
[9]; [16]
  EC50: > 33 µM
[9]; EC50, FIG. 16, GAL4-EcR (DEF)
  EC50: ~3 µM

## CC(C)(O)CC[C@@H](O)[C@](C)(O)[C@H]1CC[C@@]2(O)C3=CC(=O)[C@@H]4C[C@@H](O)[C@@H](O)C[C@]4(C)[C@H]3CC[C@]12C [Compound 20-hydroxyecdysone]
[4]; FIG. 14A/14B, GAL4-EcR(DEF)
  EC50: ~0.8 µM
[4]; FIG. 16, GAL4-EcR (DEF)
  EC50: 0.6 µM
[5]; [14]
  EC50: ~15 µM
[6]; [14]
  EC50: 4.38 µM
[7]; [12]
  EC50: ~0.8 µM
[8]; [11]
  EC50: ~5 µM
[8]; [12]
  EC50: 5.35 µM
[9]; [16]
  EC50: ~15 µM

## C=C(C)CC[C@@H](O)[C@](C)(O)[C@H]1CC[C@@]2(O)C3=CC(=O)[C@@H]4C[C@@H](O)[C@@H](O)C[C@]4(C)[C@H]3CC[C@]12C [listing 2 of 2 here]
[4]; FIG. 14A/14B, GAL4-EcR(DEF)
  EC50: 0.006 µM
[5]; [11]
  EC50: 0.912 µM
[6]; [11]
  EC50: 0.024 µM
[8]; [11]
  EC50: 0.382 µM
[9]; [16]
  EC50: 1.4 µM

## CC(C)(O)CCC(O)C(C)(O)C1CCC2(O)C3=CC(=O)C4CC(O)CCC4(C)C3CCC12C (stereo not shown) [Compound 2-deoxy-20-hydroxyecdysone]
[5]; [11]
  EC50: > 33 µM
[6]; [13]
  EC50: ~5 µM
[7]; [11]
  EC50: ~5 µM
[8]; [11]
  EC50: ~15 µM
[1]; read-out: EC50
  EC50: > 33 µM
[2]
  EC50: > 33 µM
[3]; [10]
  EC50: ~10 µM
[9]; [16]
  EC50: ~20 µM

## CC(C)CC[C@@H](O)[C@](C)(O)[C@H]1CC[C@@]2(O)C3=CC(=O)[C@]4(O)C[C@@H](O)[C@@H](O)C[C@]4(C)[C@H]3[C@H](O)C[C@]12C [Mur A, muristerone A, reference compound]
[5]; EC50, FIG. 4C
  EC50: 0.112 µM
[5]; [11]
  EC50: 0.058 µM
[6]; [11]
  EC50: 0.023 µM
[7]; [11]
  EC50: 0.128 µM
[8]; [11]
  EC50: 0.829 µM
[1]; EC50, FIG. 13A/13B, BmEcR, GAL4-EcR(DEF) with VP16-RXR-USP chimera
  EC50: 2.98 µM
[3]; [10]
  EC50: 0.66 µM
[9]; [16]
  EC50: ~5 µM

## CC(C)CC[C@@H](O)[C@](C)(O)[C@H]1CC[C@@]2(O)C3=CC(=O)[C@@H]4C[C@@H](O)[C@@H](O)C[C@]4(C)[C@H]3CC[C@]12C [PoA, ponasterone A, reference compound]
[5]; EC50, FIG. 4C
  EC50: 0.113 µM
[5]; [12]
  EC50: 0.84 µM
[8]; [11]
  EC50: 0.031 µM
[2]
  EC50: 8.42 µM
[3]; [15]
  EC50: 0.17 µM
[9]; [16]
  EC50: 0.044 µM
[9]; EC50, FIG. 16, GAL4-EcR (DEF)
  EC50: 0.07 µM
